Laboratory results reported in article PMC7459823, “Characterization of Five Novel Anti-MRSA Compounds Identified Using a Whole-Animal Caenorhabditis elegans/Galleria mellonella Sequential-Screening Approach” (Antibiotics, 2020).
In brackets after ≈: the same amount, converted by molar mass. Where two headings read alike, the source gives them in different places.

How the values were obtained:
[1] = system: MRSA MW2 infection of Galleria mellonella larvae; assay: G. mellonella–MRSA survival assay; assay type: in vivo; details: larvae infected with MRSA MW2 5 × 10^5 CFU, compound 10 mg/kg 2 h after infection, monitored 120 h; untreated 1 day
Experimental: Larvae were infected with MRSA MW2 (5 × 10^5 CFU) in the left rear proleg, and after two hours, the compounds were introduced separately at 10 mg/kg into the right rear proleg and larvae survival was monitored for 120 h.
Assays were performed as described previously. Briefly, sixteen randomly selected G. mellonella larvae (Vanderhorst, Inc., St. Mary’s, OH, USA) between 300–350 mg were used for each test group. MRSA-MW2 was grown in Tryptic Soy Broth (TSB), washed with phosphate buffered saline (PBS, pH = 7.4), and diluted to OD600 = 0.3 before inoculation into G. mellonella larvae. A 10-μL inoculum was injected into the last left proleg using a 10-μL Hamilton syringe. After 2 h, compounds were administered into the last right proleg and larvae were incubated at 37 °C. G.mellonella survival was monitored for 120 h, and death was confirmed when there was no response. Killing curves and differences in survival were analyzed by the Kaplan–Meier method using GraphPad Prism version 8 (GraphPad Software, La Jolla, CA, USA). Statistical analysis (Kruskal–Wallis test) was carried out using the same program.

[2] = system: clinical S. aureus isolate BF4; assay: Broth microdilution MIC, clinical S. aureus isolate BF4; assay type: cell-based; details: Staphylococcus aureus; BF4; read-out: MIC
Experimental: (§1) In vitro antibacterial activities were determined using the broth microdilution method. Assays were performed as described in Clinical and Laboratory Standards Institute protocols in triplicate using cation-adjusted Muller–Hinton broth (Becton Dickinson and Company, Franklin Lakes, NJ, USA) in 96-well plates with a total assay volume of 100 µL. Two-fold serial dilutions of test compounds were prepared over the concentration range of 1–64 µg/mL. The bacterial concentration was adjusted to OD600 = 0.06. […] A 10 µL aliquot from each well in the MIC assays was plated onto Muller–Hinton agar (Becton Dickinson and Company, Franklin Lakes, NJ, USA) and incubated overnight at 37 °C. The lowest concentration of compound for which no growth was observed on agar plates was reported as the minimal bactericidal concentration (MBC).

MRSA MW2 [3] = assay: Sytox green membrane permeabilization; assay type: cell-based, Staphylococcus aureus; details: compounds at 64 µg/mL, monitored over 1 h
Experimental: To determine whether the compounds target bacterial membranes, MRSA MW2 was treated with the compounds and uptake of the membrane-impermeable DNA-binding fluorescent dye Sytox green was monitored over 1 h (Figure 4).
Sytox Green (Life Technologies, Needham, MA, USA) membrane permeabilization assays were performed as previously described. The experiments were carried out in duplicate in 96-well plates. Cells were grown to log phase and were harvested by centrifuging at 3700× g for 5 min. The cells were washed twice with PBS and resuspended to OD600 = 0.2, following which 5 µM Sytox green was added to the cells and the bacteria-dye mixture were incubated in the dark for 30 mins.
Cell suspensions (50 µL) were added to 50 µL of test compounds (64 µg/mL in PBS) and fluorescence intensity was measured (excitation 485 nm, emission 530 nm) periodically over 60 min.

[4] = system: MRSA-MW2 infection of C. elegans; assay: C. elegans–MRSA-MW2 high-throughput screen (Z-score, alive versus dead worms); assay type: in vivo, Caenorhabditis elegans; details: screening concentration 2.86 µg/mL, hits Z > 2
From the text: The five compounds: (4,4′,4″-(4-propyl-[1H]-pyrazole-1,3,5-triyl)trisphenol, PPT; (1S,2S)-2-[2-[[3-(1H-benzimidazol-2-yl)propyl]methylamino]ethyl]-6-fluoro-1,2,3,4-tetrahydro-1-(1-methylethyl)-2- naphthalenyl cyclopropanecarboxylate dihydrochloride, NNC; 4,5,6,7-tetrabromobenzotriazole, TBB; 3-[2-[2-chloro-4-[3-(2,6-dichlorophenyl)-5-(1-methylethyl)-4-isoxazolyl]methoxy]phenyl] ethenyl] benzoic acid, GW4064; and N-(cyclopropylmethoxy)-3,4,5-trifluoro-2-[(4-iodo-2-methylphenyl)amino] benzamide, PD198306) were purchased from Tocris Bioscience at the following levels of purity: PPT: >99.7%, NNC: >98%, TBB: >99%, GW4064: >97%, and PD198306: 98.8%. […] Hits were identified based on Z-scores. Z-scores are calculated from the ratio of alive versus dead worms after treatment with test compounds and represents the number of standard deviations (SD) the test compound differs from the mean using the formula Z = (x − μ)/σ; where x is the raw sample score, μ is the mean of the population and σ is the standard deviation of the population. Samples with Z > 2σ are considered hits.

Klebsiella pneumoniae = assay: Broth microdilution MIC, Klebsiella pneumoniae; assay type: cell-based; details: read-out: MIC
Experimental: as §1

[5] = system: clinical S. aureus isolate BF2; assay: Broth microdilution MIC, clinical S. aureus isolate BF2; assay type: cell-based; details: Staphylococcus aureus; BF2; read-out: MIC
Experimental: as §1

Enterococcus faecium = assay: Broth microdilution MIC, Enterococcus faecium; assay type: cell-based; details: read-out: MIC
Experimental: as §1

Pseudomonas aeruginosa = assay: Broth microdilution MIC, Pseudomonas aeruginosa; assay type: cell-based; details: read-out: MIC
Experimental: as §1

[6] = system: clinical S. aureus isolate BF3; assay: Broth microdilution MIC, clinical S. aureus isolate BF3; assay type: cell-based; details: Staphylococcus aureus; BF3; read-out: MIC
Experimental: as §1

MKN-28 = details: human, 24 h
Experimental: (§2) Mammalian cell lines HepG2 (hepatic cells), A549 (epithelial cells), and MKN-28 (gastric cells) were used to measure the anti-proliferative properties of test compounds, as described elsewhere [28]. Cells were grown in Dulbecco’s Modified Eagle Medium (DMEM) (Gibco, Waltham, MA, USA) supplemented with 10% Fetal Bovine Serum (FBS) (Gibco, Waltham, MA, USA) and 1% penicillin/streptomycin (Gibco, Waltham, MA, USA) and maintained at 37 °C in 5% CO2. After harvesting, the cells were suspended in DMEM and 100 µL was added to the wells of 96-well plates. The test compounds were serially diluted in serum and antibiotic free DMEM, added to the monolayer of cells, and incubated at 37 °C in 5% CO2 for 24 hr. Percentage survival was calculated by comparison to DMSO-treated vehicle controls. Assays were carried out in triplicate.

A549 = details: human, 24 h
Experimental: as §2

HepG2 = details: human, 24 h
Experimental: as §2

MRSA MW2 [7] = assay: Broth microdilution antibacterial susceptibility (MIC/MBC), MRSA MW2; assay type: cell-based, Staphylococcus aureus; details: for MBC: MRSA MW2
Experimental: as §1

With `Cc1cc(I)ccc1Nc1c(C(=O)NOCC2CC2)cc(F)c(F)c1F` [PD198306, N-(Cyclopropylmethoxy)-3,4,5-trifluoro-2-[(4-iodo-2-methylphenyl)amino]-benzamide] the median post-infection survival [1] was 2 days, the MIC [2] was 2 mg/L (≈ 4.2 µM) and the “cellular fluorescence (Sytox green uptake)” value (MRSA MW2 [3]) was “no changes in cellular fluorescence”. The Z-Score [4] was 3.43, the MIC (Klebsiella pneumoniae) was greater than 64 mg/L and the MIC [5] was 2 mg/L (≈ 4.2 µM). The MIC (Enterococcus faecium) was 2 mg/L (≈ 4.2 µM), the MIC (Pseudomonas aeruginosa) was greater than 64 mg/L and the MIC [6] was 2 mg/L (≈ 4.2 µM). It also gave an Eukaryotic cell cytotoxicity (MKN-28) of 16 µg/mL, an Eukaryotic cell cytotoxicity (A549) of 16 µg/mL and an Eukaryotic cell cytotoxicity (HepG2) of 2 µg/mL. The MBC (MRSA MW2 [7]) was greater than 64 mg/L, the MIC (MRSA MW2 [7]; Staphylococcus aureus, MRSA MW2, 18 h, 37 °C, read-out: MIC) was 2 mg/L (≈ 4.2 µM) and the MBC (MRSA MW2 [7]; Staphylococcus aureus, read-out: MBC) was greater than 64 mg/L.
